Measurements: publication PMC9551036, “A selective and orally bioavailable VHL-recruiting PROTAC achieves SMARCA2 degradation in vivo” (Nature Communications, 2022)
“And” between values parts separate entries of the source, which are not always exact repeats. Equal entries are not always repeated. Where two headings read alike, the source gives them in different places.

Target: SMARCA2 (Homo sapiens, UniProt P51531)
Experiment: SMARCA2 capillary electrophoresis protein assay in other cell lines (A549, NCI-H1568, HCT116, LU99, HCC-364, HCT-15, HCC4006, SK-N-AS)
Type: cell-based
Parameters: endogenous in cells; host or cells: RKO, NCI-H1568, A549, HCT116, LU99, HCC-364, HCT-15, HCC4006, SK-N-AS
Settings: for LogEC50: log10 of concentration in mol/l
Experimental: 130,000–200,000 cells were seeded in 24-well plates and incubated until settled down or overnight. Compounds were dissolved in DMSO and added to cells in indicated concentrations using a digital dispenser following an optional media change. Cells were incubated for 4 or 18 h as indicated. For SMARCA2/4 half-life determination, 150,000 or 200,000 cells were seeded in 24-well plates. The next day, 50 µg/ml cycloheximide (Sigma) was added and cells were incubated for 1–24 h. For SMARCA2/4 re-synthesis measurements, 200,000 cells were seeded in 24-well plates. The next day, 100 nM compound 6 was added for 4 h to degrade SMARCA2/4, and a sample was taken as baseline for normalisation. To allow re-synthesis, a VHL binder (compound 32, 25 or 50 µM) was then added for 3 or 24 h. Medium was removed, cells were washed with PBS and lysed with 80 µl Lysis Buffer (MSD Tris Lysis Buffer (#R60TX-2) + Halt Inhibitor Cocktail (100x) + Benzonase 0.5 µL/ml). Samples were frozen at −80 °C and thawed at room temperature before use. Samples were transferred to a V-bottom plate and insoluble debris was pelleted by centrifugation for 5 min at maximum speed. The supernatant was transferred to a fresh plate. Master Mix and Ladder were prepared according to manufacturer’s instructions for 12–230 kDa Wes Separation Module, 8 × 25 capillary cartridges, Protein Simple #SM-W004 with Anti-Rabbit Detection Module for Wes, Peggy Sue or Sally Sue, Protein Simple #DM-001. 4.8 µl lysate were mixed with 1.2 µl Master Mix to achieve a protein concentration of ~0.5 µg/µl. Antibodies were diluted in Antibody Diluent II (SMARCA2 Sigma #HPA029981 RRID:AB_10602406 1:25–100, SMARCA4 Cell Signalling #49360 clone D1Q7F RRID:AB_2728743 1:15–120 or Abcam #ab110641 clone EPNCIR111A RRID:AB_10861578 1:60, GAPDH Abcam #ab9485 RRID:AB_307275 1:250). Wes plates were prepared and run according to manufacturer’s instructions. Proteins were quantified with accompanying Compass Software. SMARCA2/4 protein levels were normalised to GAPDH. […] Where applicable, curves were fitted using a 4-parametric logistic model.

[1] = SK-N-AS_SM2, four-parameter fit

Sequence of SMARCA2 (P51531 whole entry): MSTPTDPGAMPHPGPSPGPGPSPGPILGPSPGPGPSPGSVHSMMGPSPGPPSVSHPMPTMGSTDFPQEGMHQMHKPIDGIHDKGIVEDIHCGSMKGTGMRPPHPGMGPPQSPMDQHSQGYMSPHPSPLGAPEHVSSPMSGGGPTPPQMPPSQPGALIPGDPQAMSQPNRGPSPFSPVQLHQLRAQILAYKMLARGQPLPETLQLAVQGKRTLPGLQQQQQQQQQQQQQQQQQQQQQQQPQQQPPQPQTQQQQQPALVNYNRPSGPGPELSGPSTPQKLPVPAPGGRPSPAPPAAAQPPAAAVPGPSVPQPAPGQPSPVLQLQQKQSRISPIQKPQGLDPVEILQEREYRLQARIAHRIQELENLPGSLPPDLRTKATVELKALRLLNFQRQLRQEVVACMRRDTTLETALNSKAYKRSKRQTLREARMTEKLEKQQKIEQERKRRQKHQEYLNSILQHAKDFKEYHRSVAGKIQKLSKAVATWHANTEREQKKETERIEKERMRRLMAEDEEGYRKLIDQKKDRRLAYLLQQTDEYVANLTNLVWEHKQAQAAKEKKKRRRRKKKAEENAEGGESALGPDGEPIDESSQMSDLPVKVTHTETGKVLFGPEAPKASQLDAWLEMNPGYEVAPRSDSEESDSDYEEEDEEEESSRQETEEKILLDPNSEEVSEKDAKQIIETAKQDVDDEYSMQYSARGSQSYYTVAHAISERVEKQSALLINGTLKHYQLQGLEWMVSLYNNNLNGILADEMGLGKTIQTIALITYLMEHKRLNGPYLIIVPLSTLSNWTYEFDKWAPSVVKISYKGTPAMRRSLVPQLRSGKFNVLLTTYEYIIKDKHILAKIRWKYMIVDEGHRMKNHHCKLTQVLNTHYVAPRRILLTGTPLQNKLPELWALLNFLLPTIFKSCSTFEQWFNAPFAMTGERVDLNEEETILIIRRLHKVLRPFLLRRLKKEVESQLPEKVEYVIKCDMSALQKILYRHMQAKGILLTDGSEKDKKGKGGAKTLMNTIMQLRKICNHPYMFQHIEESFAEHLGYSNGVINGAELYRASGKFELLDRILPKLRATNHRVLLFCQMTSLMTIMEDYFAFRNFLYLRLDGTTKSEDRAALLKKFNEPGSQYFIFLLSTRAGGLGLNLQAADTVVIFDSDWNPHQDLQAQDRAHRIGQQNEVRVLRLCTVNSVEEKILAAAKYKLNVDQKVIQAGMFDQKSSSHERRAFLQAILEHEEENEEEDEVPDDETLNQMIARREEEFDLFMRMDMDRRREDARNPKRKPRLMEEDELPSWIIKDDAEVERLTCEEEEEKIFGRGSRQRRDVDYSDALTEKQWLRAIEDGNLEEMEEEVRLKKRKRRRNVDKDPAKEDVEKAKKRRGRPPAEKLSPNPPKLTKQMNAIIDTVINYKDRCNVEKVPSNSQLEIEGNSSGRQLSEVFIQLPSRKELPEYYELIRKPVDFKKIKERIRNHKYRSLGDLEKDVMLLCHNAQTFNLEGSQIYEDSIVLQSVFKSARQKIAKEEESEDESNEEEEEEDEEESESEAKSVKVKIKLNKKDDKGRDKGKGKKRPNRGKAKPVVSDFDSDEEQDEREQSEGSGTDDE

Q: What does the source list for Cc1ncsc1-c1ccc(C(CCC(C)CCN2CCC(c3ccc4c(c3)n(C3CCCC3)c3nc(=O)c5c(Br)cccc5n43)CC2)NC(=O)C2CC(O)CN2C(=O)C(NC(=O)C2(F)CC2)C(C)(C)C)cc1 (stereo not shown) [ACBI2]?
A: HillSlope (HCC-364_SM2, four-parameter fit): -2.48; LogEC50 (HCC-364_SM2): -8.138; DC50 (HCC-364_SM2, protein degradation, four-parameter fit, read-out: EC50 (the source's name)): 7.28 nM; Bottom (% protein remaining, four-parameter fit) (HCT116, SM2): 21.77%; HillSlope (protein remaining) (HCT116, SM2): -1.136; Top (% protein remaining, four-parameter fit) (HCT116, SM2): 121.9%; Bottom (best-fit value, % protein remaining) (HCT-15_SM2, four-parameter fit): -16.7%; HillSlope (HCT-15_SM2, four-parameter fit): -0.6998; LogEC50 (HCT-15_SM2): -6.787; DC50 (HCT-15_SM2, protein degradation, four-parameter fit, read-out: EC50 (the source's name)): 163 nM; Bottom (best-fit value, % protein remaining) (LU99_SM2, four-parameter fit): 4.814%; HillSlope (LU99_SM2, four-parameter fit): -1.159; LogEC50 (LU99_SM2): -8.209; DC50 (LU99_SM2, protein degradation, four-parameter fit, read-out: EC50 (the source's name)): 6.18 nM; Dmax (NCI-H1568 (4 h), mean ± SD): 86 ± 6%; DC50 (NCI-H1568 (4 h), mean ± SD, read-out: SMARCA2 DC50): 13 ± 14 nM; Bottom (% protein remaining, four-parameter fit) (NCI-H1568, 4h): 6.286%; HillSlope (protein remaining) (NCI-H1568, 4h): -1.738; LogEC50 (protein remaining) (NCI-H1568, 4h): -8.191 log10(mol/l); Top (% protein remaining, four-parameter fit) (NCI-H1568, 4h): 87.56%; % protein remaining (NCI-H1568, 4h, conc 1.00001e-10 mol/l): 96.6234% and 94.5884%; % protein remaining (NCI-H1568, 4h, conc 1.52416e-10 mol/l): 71.8933%; % protein remaining (NCI-H1568, 4h, conc 3.1623e-10 mol/l): 72.7669% and 75.3978%; % protein remaining (NCI-H1568, 4h, conc 4.57247e-10 mol/l): 96.5512%; % protein remaining (NCI-H1568, 4h, conc 1.00001e-9 mol/l): 90.5385% and 93.373%; % protein remaining (NCI-H1568, 4h, conc 1.37174e-9 mol/l): 95.3256%; % protein remaining (NCI-H1568, 4h, conc 3.1623e-9 mol/l): 36.986%; % protein remaining (NCI-H1568, 4h, conc 4.11523e-9 mol/l): 94.3111%; % protein remaining (NCI-H1568, 4h, conc 1.00001e-8 mol/l): 19.3906% and 27.9502%; % protein remaining (NCI-H1568, 4h, conc 1.23457e-8 mol/l): 37.9279%; % protein remaining (NCI-H1568, 4h, conc 3.1623e-8 mol/l): 8.319% and 13.4554%; % protein remaining (NCI-H1568, 4h, conc 3.7037e-8 mol/l): 11.4262%; % protein remaining (NCI-H1568, 4h, conc 1.11111e-7 mol/l): 8.194%; % protein remaining (NCI-H1568, 4h, conc 3.1623e-7 mol/l): 2.032% and 3.543%; % protein remaining (NCI-H1568, 4h, conc 3.33333e-7 mol/l): 6.383%; % protein remaining (NCI-H1568, 4h, conc 1e-6 mol/l): 9.793%; % protein remaining (NCI-H1568, 4h, conc 1.00001e-6 mol/l): 2.382% and 3.308%; % protein remaining (NCI-H1568, 4h, conc 3.1623e-6 mol/l): 2.029% and 3.947%; DC50 (NCI-H1568, 4h, individual replicates, read-out: NCI-H1568 (4h) SMARCA2 DC50): 4.72 nM and 32.5 nM and 13 nM; DC50 (NCI-H1568, 4h, read-out: EC50 (protein remaining)): 6.44 nM; Bottom (% protein remaining, four-parameter fit) (NCI-H1568, 8h): 6.315%; HillSlope (protein remaining) (NCI-H1568, 8h): -1.161; LogEC50 (protein remaining) (NCI-H1568, 8h): -8.44 log10(mol/l); Top (% protein remaining, four-parameter fit) (NCI-H1568, 8h): 119.8%; % protein remaining (NCI-H1568, 8h, conc 4.57247e-10 mol/l): 112.24%; % protein remaining (NCI-H1568, 8h, conc 1.37174e-9 mol/l): 87.7845%; % protein remaining (NCI-H1568, 8h, conc 4.11523e-9 mol/l): 63.6536%; % protein remaining (NCI-H1568, 8h, conc 1.23457e-8 mol/l): 24.8248%; % protein remaining (NCI-H1568, 8h, conc 3.7037e-8 mol/l): 13.998%; % protein remaining (NCI-H1568, 8h, conc 1.11111e-7 mol/l): 8.2%; % protein remaining (NCI-H1568, 8h, conc 3.33333e-7 mol/l): 6.313%; % protein remaining (NCI-H1568, 8h, conc 1e-6 mol/l): 7.6382%; % protein remaining (NCI-H1568, 8h, conc 3e-6 mol/l): 6.726%; DC50 (NCI-H1568, 8h, read-out: EC50 (protein remaining)): 3.63 nM; Bottom (% protein remaining, four-parameter fit) (NCI-H1568, 18h): 2.272%; HillSlope (protein remaining) (NCI-H1568, 18h): -0.7655; LogEC50 (protein remaining) (NCI-H1568, 18h): -9.556 log10(mol/l); Top (% protein remaining, four-parameter fit) (NCI-H1568, 18h): 215.6%; % protein remaining (NCI-H1568, 18h, conc 1.52416e-10 mol/l): 134.073%; % protein remaining (NCI-H1568, 18h, conc 4.57247e-10 mol/l): 84.9656%; % protein remaining (NCI-H1568, 18h, conc 1.37174e-9 mol/l): 57.0296%; % protein remaining (NCI-H1568, 18h, conc 4.11523e-9 mol/l): 23.442%; % protein remaining (NCI-H1568, 18h, conc 1.23457e-8 mol/l): 12.5025%; % protein remaining (NCI-H1568, 18h, conc 3.7037e-8 mol/l): 5.834%; % protein remaining (NCI-H1568, 18h, conc 1.11111e-7 mol/l): 3.6967%; % protein remaining (NCI-H1568, 18h, conc 3.33333e-7 mol/l): 2.8858%; % protein remaining (NCI-H1568, 18h, conc 1e-6 mol/l): 3.302%; % protein remaining (NCI-H1568, 18h, conc 3e-6 mol/l): 4.787%; DC50 (NCI-H1568, 18h, read-out: EC50 (protein remaining)): 0.278 nM; Bottom (best-fit value, % protein remaining) [1]: 20.4%; HillSlope [1]: -1.475; LogEC50 (SK-N-AS_SM2): -7.468; DC50 (SK-N-AS_SM2, protein degradation, four-parameter fit, read-out: EC50 (the source's name)): 34 nM
